Each structure is given as a SMILES string.

These results are taken from ChEMBL document CHEMBL1155183, “Synthesis and SAR of 1,4,5,6-tetrahydropyridazines as potent cannabinoid CB1 receptor antagonists” (Bioorg Med Chem Lett, 2009).

The species named for one test is Homo sapiens. Briefly: Selectivity ratio of Ki for human CB1 receptor to Ki for human CB2 receptor.
The target of a further test is Cannabinoid receptor 2 (Homo sapiens, UniProt P34972). Briefly: Displacement of [3H]CP-55940 from human CB2 receptor expressed in CHO cells. It is filed as cell-based. (In general: In a radioligand displacement assay an active substance lowers the binding of a labelled ligand.)
Chain of Cannabinoid receptor 2 (P34972 whole entry): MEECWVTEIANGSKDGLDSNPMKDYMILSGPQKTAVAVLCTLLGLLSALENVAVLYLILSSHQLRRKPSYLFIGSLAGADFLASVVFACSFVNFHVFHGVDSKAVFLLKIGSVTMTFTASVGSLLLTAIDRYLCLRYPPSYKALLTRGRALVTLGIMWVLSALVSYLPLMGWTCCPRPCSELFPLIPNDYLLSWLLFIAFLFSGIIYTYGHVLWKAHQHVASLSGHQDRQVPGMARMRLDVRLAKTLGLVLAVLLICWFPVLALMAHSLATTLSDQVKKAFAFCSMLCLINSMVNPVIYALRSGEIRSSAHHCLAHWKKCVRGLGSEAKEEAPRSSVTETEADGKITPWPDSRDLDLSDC
Test [1] deals with T1, Cannabinoid receptor 1 (Homo sapiens, UniProt P21554). Briefly: Antagonist activity at human CB1 receptor expressed in CHO cells assessed as inhibition of CP-55940-induced [3H]arachidonic acid release. The test is classed as functional, cell-based. The following applies: read-out: pA2 (converted).
T1 sequence (P21554 whole entry): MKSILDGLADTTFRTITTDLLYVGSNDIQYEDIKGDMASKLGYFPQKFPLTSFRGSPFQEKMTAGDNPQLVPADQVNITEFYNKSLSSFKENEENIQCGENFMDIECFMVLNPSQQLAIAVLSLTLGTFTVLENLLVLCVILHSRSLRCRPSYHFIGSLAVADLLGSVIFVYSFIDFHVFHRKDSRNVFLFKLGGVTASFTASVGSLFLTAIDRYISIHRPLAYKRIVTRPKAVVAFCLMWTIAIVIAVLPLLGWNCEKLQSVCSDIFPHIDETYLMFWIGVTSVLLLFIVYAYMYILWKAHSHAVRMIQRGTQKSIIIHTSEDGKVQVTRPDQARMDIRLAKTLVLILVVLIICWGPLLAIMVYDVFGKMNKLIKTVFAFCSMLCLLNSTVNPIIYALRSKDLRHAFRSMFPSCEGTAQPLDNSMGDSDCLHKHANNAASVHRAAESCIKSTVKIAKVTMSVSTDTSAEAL
Test [2] concerns the target T1, Cannabinoid receptor 1. Briefly: Displacement of [3H]CP-55940 from human CB1 receptor expressed in CHO cells. The test is classed as cell-based.

On to `CN/C(=N\S(=O)(=O)N1CCC(F)(F)CC1)N1CCC(c2ccccc2)C(c2ccc(Cl)cc2)=N1` (stereo not given), for which the Ratio Ki in the test listed under Homo sapiens was 5.

As a reminder, the Ki is a dissociation constant, usually derived from enzyme kinetics or from competition with a known ligand. Turning to `CN=C(NS(=O)(=O)N1CCC(F)(F)CC1)N1CC(c2ccccc2)C(c2ccc(Cl)cc2)=N1` (stereo not given), the Ki on Cannabinoid receptor 2 amounted to 219 nM; at Cannabinoid receptor 1 [2], 12.2 nM. Moreover, at Cannabinoid receptor 1 [1], the Kb is 0.631 nM.

For the molecule `CNC(=NS(=O)(=O)N1CCC(F)(F)CC1)N1CCC(c2ccccc2)C(c2ccc(Cl)cc2)=N1` (stereo not given), the Ki amounted to 247 nM at Cannabinoid receptor 2 and 47 nM at Cannabinoid receptor 1 [2]. Moreover, the Kb on Cannabinoid receptor 1 [1] is 1 nM.

In the case of `CNC(=NS(=O)(=O)N1CCCCC1)N1CCC(c2ccccc2)C(c2ccc(Cl)cc2)=N1` (stereo not given), the inhibition constant Ki on Cannabinoid receptor 2 is 571 nM; on Cannabinoid receptor 1 [2], 74 nM. Moreover, at Cannabinoid receptor 1 [1], the Kb was 2 nM.

`CN/C(=N\S(=O)(=O)c1ccc(Cl)cc1)N1CCC(c2ccccc2)C(c2ccc(Cl)cc2)=N1` (stereo not given): the figures for the Ki at Cannabinoid receptor 2 and at Cannabinoid receptor 1 [2] were 318 nM and 43 nM, respectively. Moreover, the Kb on Cannabinoid receptor 1 [1] was 1 nM. For the same molecule, the Ratio Ki in the test listed under Homo sapiens was 5.

In the case of `CN/C(=N\S(=O)(=O)N1CCCCC1)N1CCC(c2ccccc2)C(c2ccc(Cl)cc2)=N1` (stereo not given), the Ratio Ki in the test filed under Homo sapiens is 5.
